# Assay results from patent publication US8795632B2, “Disease animal model for chronic pain” (Astellas Pharma Inc., priority 2008, dated 2014).
# Assays:
# rats = settings: single intraperitoneal administration of reserpine in rats; Non-patent Reference 13; cited from earlier work
# [1] = test system: dopamine, norepinephrine and serotonin in the spinal cord, thalamus and prefrontal cortex; assay: Amounts of dopamine, norepinephrine and serotonin in spinal cord, thalamus and prefrontal cortex after repeated administration of reserpine (HPLC-ECD); type: in vivo, rat
# Procedure: Male Sprague-Dawley rats (7 weeks old, Japan SLC, Hamamatsu, Japan) were used as the animal.
# A total of 96 rats were divided into 8 test schedules (collection of samples before administration and 1, 3, 5, 7, 10, 14 or 21 days after the final administration) and further divided each of them into a vehicle (0.5% acetic acid aqueous solution) administration group, a reserpine 0.1 mg/kg administration group, a 0.3 mg/kg administration group and a 1 mg/kg administration group, to 3 rats per group. As shown in Example 1, the vehicle or 0.1, 0.3 or 1 mg/kg of reserpine was repeatedly administered to each rat once a day for 3 days, and the brain and spinal cord were quickly collected 1, 3, 5, 7, 10, 14 or 21 days after the final administration. The thalamus and prefrontal cortex were separated from the brain on an ice-cold dish.
# Regarding the sampling before administration, samples were collected before beginning of the repeated administration of vehicle or reserpine. The collected samples were quickly frozen and stored at −80° C. until their use in the measurements. On the day of the measurement, tissues of respective samples were subjected to wet weight measurement, homogenized in 0.2 M perchloric acid/0.1 mM EDTA-2Na solution using an ultrasonic homogenizer. After centrifugation at 15,000 g and at 4° C. for 15 minutes, the supernatant was adjusted to pH 3.5 using sodium acetate and filtered using a filter. Amounts of dopamine, norepinephrine and serotonin in these samples were measured using a high performance liquid chromatography (column: SC-50DS 30, 150 mm, Eicom Co., Ltd., Kyoto, Japan, mobile phase composition: 0.1 M sodium acetate buffer, 0.1 M citrate buffer, pH 3.5, 5 mg/l EDTA-2Na, 190 mg/l sodium octane sulfonic acid, 17% methanol) and an electrochemical detector (ECD-300, Eicom Co., Ltd., Kyoto, Japan). The measurement was carried out under conditions of flow rate 0.5 ml/min, applied voltage 750 mV and 25° C. Amounts of dopamine, norepinephrine and serotonin in the samples were quantified by comparing sample peak areas of respective standards measured on the same day of the sample measurement. All of the measured values were expressed as average value±standard error in the graphs, and unit of the measured values was set to ng/g tissue wet weight.
# Statistical difference of the measured values between the reserpine administration group and the vehicle administration group in each test schedule was carried out by the two-way analysis of variance and the Bonferroni method. Probability value (P) of less than 5% was judged as statistically significant (P<0.05 was expressed as * in the graphs). In addition, average values of respective groups at each point of time were expressed as percentages of the average values of corresponding vehicle administration groups.
# Sprague-Dawley rats [2] = assay: Muscle pressure pain threshold value after reserpine single administration; type: in vivo, rat; settings: reserpine 3 mg/kg single s.c.
# Procedure: Male Sprague-Dawley rats (Japan SLC, Hamamatsu, Japan) were used. Measurement of muscle pressure pain threshold value was carried out in the same manner as in Example 1. That is, a pressure stimulus of gradually increasing to 250 g at the maximum was added to the right hind leg gastrocnemius muscle of each rat. […] The measurement was carried out 3 times at each point of time of the measurement, and the average was used as the measurement value.
# Influences of the reserpine single administration upon the muscle pressure pain threshold value, skin pain sensation threshold value, cold sensitivity and heat sensitivity were examined in accordance with the following protocol. […] The muscle pressure pain threshold value, skin pain sensation threshold value, cold sensitivity and heat sensitivity before the reserpine treatment (base lines) were measured and then they were divided into a solvent (0.5% acetic acid aqueous solution) group and a reserpine (3 mg/kg) group (the number of animals per group was 6). […] The muscle pressure pain threshold value, skin pain sensation threshold value, cold sensitivity and heat sensitivity of each rat were measured at the points of measurement time of acute phase after administration of the solvent or reserpine (2, 4, 8 and 24 hours) and chronic phase (2, 3, 5, 7, 10, 14 and 21 days).
# (§1) All of the measured values were expressed as average value±standard error. […]
# Sprague-Dawley rats [3] = assay: Cold sensitivity (acetone method) after reserpine single administration; type: in vivo, rat; settings: reserpine 3 mg/kg single s.c.
# Procedure: Measurement of cold sensitivity was carried out in accordance with the method of Choi et al. (Choi et al., Pain, 59, 369-376, 1994). After adaptation of each rat to a wire mesh bottom cage for measurement, 50 μl of acetone was sprayed to the plantar surface of the right hind paw of the rat using a syringe for insulin injection. The number of reactions of the right hind paw (flinching, lifting and leg licking) occurred during 1 minute just after the spraying was measured and used as the index of cold sensitivity. At each point of time of the measurement, the acetone spraying was carried out 3 times at 5 minute intervals and the average was used as the measured vale. […]
# Influences of the reserpine single administration upon the muscle pressure pain threshold value, skin pain sensation threshold value, cold sensitivity and heat sensitivity were examined in accordance with the following protocol. […] The muscle pressure pain threshold value, skin pain sensation threshold value, cold sensitivity and heat sensitivity before the reserpine treatment (base lines) were measured and then they were divided into a solvent (0.5% acetic acid aqueous solution) group and a reserpine (3 mg/kg) group (the number of animals per group was 6). […]
# as §1
# [4] = reserpine 0.1 mg/kg s.c. once a day for 3 days, 1 day after final administration
# [5] = reserpine 0.3 mg/kg s.c. once a day for 3 days, 1 day after final administration
# [6] = reserpine 1 mg/kg s.c. once a day for 3 days, 1 day after final administration
# [7] = reserpine 1 mg/kg s.c. once a day for 3 days, after 21 days
smiles,measurement,setting,value
COC(=O)[C@H]1[C@H]2C[C@@H]3c4[nH]c5cc(OC)ccc5c4CCN3C[C@H]2C[C@@H](OC(=O)c2cc(OC)c(OC)c(OC)c2)[C@@H]1OC [reserpine],sensitivity to thermal stimulation,rats,causes hypersensitivity to thermal stimulation
same,time within which hypersensitivity to thermal stimulation disappears,rats,≤ 24 h
same,"amount of dopamine in the prefrontal cortex, % of the vehicle administration group",[1]; [4],49.1%
same,"amount of dopamine in the spinal cord, % of the vehicle administration group",[1]; [4],46.4%
same,"amount of dopamine in the thalamus, % of the vehicle administration group",[1]; [4],49.2%
same,"amount of norepinephrine in the prefrontal cortex, % of the vehicle administration group",[1]; [4],10.2%
same,"amount of norepinephrine in the spinal cord, % of the vehicle administration group",[1]; [4],19.1%
same,"amount of norepinephrine in the thalamus, % of the vehicle administration group",[1]; [4],43.8%
same,"amount of serotonin in the prefrontal cortex, % of the vehicle administration group",[1]; [4],42.0%
same,"amount of serotonin in the spinal cord, % of the vehicle administration group",[1]; [4],45.4%
same,"amount of serotonin in the thalamus, % of the vehicle administration group",[1]; [4],28.8%
same,"amount of dopamine in the prefrontal cortex, % of the vehicle administration group",[1]; [5],21.4%
same,"amount of dopamine in the spinal cord, % of the vehicle administration group",[1]; [5],26.3%
same,"amount of dopamine in the thalamus, % of the vehicle administration group",[1]; [5],53.2%
same,"amount of norepinephrine in the prefrontal cortex, % of the vehicle administration group",[1]; [5],0.7%
same,"amount of norepinephrine in the spinal cord, % of the vehicle administration group",[1]; [5],2.6%
same,"amount of norepinephrine in the thalamus, % of the vehicle administration group",[1]; [5],6.1%
same,"amount of serotonin in the prefrontal cortex, % of the vehicle administration group",[1]; [5],15.5%
same,"amount of serotonin in the spinal cord, % of the vehicle administration group",[1]; [5],15.7%
same,"amount of serotonin in the thalamus, % of the vehicle administration group",[1]; [5],14.8%
same,"amount of dopamine in the prefrontal cortex, % of the vehicle administration group",[1]; [6],13.4%
same,"amount of dopamine in the spinal cord, % of the vehicle administration group",[1]; [6],18.4%
same,"amount of dopamine in the thalamus, % of the vehicle administration group",[1]; [6],24.5%
same,"amount of norepinephrine in the prefrontal cortex, % of the vehicle administration group",[1]; [6],0.2%
same,"amount of norepinephrine in the spinal cord, % of the vehicle administration group",[1]; [6],0.6%
same,"amount of norepinephrine in the thalamus, % of the vehicle administration group",[1]; [6],1.2%
same,"amount of serotonin in the prefrontal cortex, % of the vehicle administration group",[1]; [6],4.6%
same,"amount of serotonin in the spinal cord, % of the vehicle administration group",[1]; [6],0.1%
same,"amount of serotonin in the thalamus, % of the vehicle administration group",[1]; [6],8.9%
same,"amount of dopamine in the prefrontal cortex, % of the vehicle administration group",[1]; [7],54.9%
same,"amount of dopamine in the spinal cord, % of the vehicle administration group",[1]; [7],70.1%
same,"amount of dopamine in the thalamus, % of the vehicle administration group",[1]; [7],66.5%
same,"amount of norepinephrine in the prefrontal cortex, % of the vehicle administration group",[1]; [7],29.1%
same,"amount of norepinephrine in the spinal cord, % of the vehicle administration group",[1]; [7],59.4%
same,"amount of norepinephrine in the thalamus, % of the vehicle administration group",[1]; [7],46.0%
same,"amount of serotonin in the prefrontal cortex, % of the vehicle administration group",[1]; [7],47.0%
same,"amount of serotonin in the spinal cord, % of the vehicle administration group",[1]; [7],67.8%
same,"amount of serotonin in the thalamus, % of the vehicle administration group",[1]; [7],60.7%
same,muscle pressure pain threshold value,"Sprague-Dawley rats [2]; after 2, 3, 5, 7 and 10 days",significantly reduced
same,muscle pressure pain threshold value,"Sprague-Dawley rats [2]; after 2, 4, 8 and 24 hours",significantly increased
same,cold sensitivity: number of reactions,"Sprague-Dawley rats [3]; after 2, 3, 5, 7 and 10 days",significantly increased
same,cold sensitivity: number of reactions,Sprague-Dawley rats [3]; within 24 hours after administration,did not show significant increase
